Reference: ChEMBL document CHEMBL5149962, “Targeting KRAS mutant cancers by preventing signaling transduction in the MAPK pathway” (Eur J Med Chem, 2021)
Values belong to the compound of their own block, whether it stands above or below them.

Columns and labels:
[1] = system: HCT-116; assay: Cytotoxicity against human HCT-116 cells harboring KRAS G13D mutant assessed as reduction in cell viability measured after 48 hrs by MTT assay; assay type: functional, cell-based; conditions: HCT-116, 48 h
[2] = system: MIA PaCa-2; assay: Cytotoxicity against human MIA PaCa-2 cells harboring KRAS G12C mutant assessed as reduction in cell viability measured after 48 hrs by MTT assay; assay type: functional, cell-based; conditions: MIA PaCa-2, 48 h
[3] = system: NCI-H460; assay: Cytotoxicity against human NCI-H460 cells harboring KRAS […] mutant assessed as reduction in cell viability measured after 48 hrs by MTT assay; assay type: functional, cell-based; conditions: NCI-H460, 48 h
[4] = system: SW-620; assay: Cytotoxicity against human SW-620 cells harboring KRAS G12V mutant assessed as reduction in cell viability measured after 48 hrs by MTT assay; assay type: functional
[5] = system: PANC-1; assay: Cytotoxicity against human PANC-1 cells harboring KRAS G12D mutant assessed as reduction in cell viability measured after 48 hrs by MTT assay; assay type: functional, cell-based; conditions: PANC-1, 48 h
[6] = system: MDA-MB-231; assay: Cytotoxicity against human MDA-MB-231 cells harboring KRAS G13D mutant assessed as reduction in cell viability measured after 48 hrs by MTT assay; assay type: functional, cell-based; conditions: MDA-MB-231, 48 h
[7] = system: NIH3T3; assay: Antitumor activity against mouse NIH3T3 cells transfected with KRAS4B xenografted nude mouse assessed as inhibition of tumor growth at 35 mg/kg, ip administered in the presence of FTI-276 relative to control; assay type: functional; set-up: scale not given: the % may be the effect or the level left
[8] = system: Calu-1; assay: Antitumor activity against human Calu-1 cells transfected with KRAS mutant xenografted nude mouse assessed as inhibition of tumor growth at 70 mg/kg, ip administrated once daily measure for 40 to 80 days relative to control; assay type: functional; set-up: scale not given: the % may be the effect or the level left; conditions: time 40-80 day
[9] = system: NIH3T3; assay: Antitumor activity against mouse NIH3T3 cells transfected with H-Ras CVLS xenografted nude mouse assessed as inhibition of tumor growth at 70 mg/kg, ip administered once daily relative to control; assay type: functional; set-up: scale not given: the % may be the effect or the level left
[10] = Competitive binding of mammalian GGTase-1 expressed in Sf9 cells assessed as inhibition of 3H-GGPP binding to RAS using Ras-CVLL as substrate incubated for 10 mins; set-up: species or system Mammalia
[11] = Inhibition of mammalian GGTase-1 expressed in Sf9 cells using wildtype His-tagged RAS-CVLL as substrate assessed as inhibition of substrate plasma membrane localisation; assay type: cell membranes, Mammalia

SMILES: CCCc1c(OCCCCCOc2coc(CO)cc2=O)ccc(Cl)c1Cl
IC50 [1]: 8 µM | IC50 [2]: 10.2 µM | IC50 [3]: 15 µM | IC50 [4]: 37.1 µM | IC50 [5]: 17.3 µM | IC50 [6]: 7 µM

SMILES: CC(C)C[C@H](NC(=O)c1ccc(NC[C@@H](N)CS)cc1-c1cccc2ccccc12)C(=O)O
Activity [7]: 65% | Activity [8]: 60% | Activity [9]: 40%

IC50 [11]: 2 µM
SMILES: CSCCc1c(-c2cccnc2)nn(-c2ccc(Cl)c(Cl)c2)c1OCCCC(=O)N[C@@H](Cc1ccccc1)C(N)=O
Ki [10]: 0.0008 µM
